According to patent US9119886B2, “Immunoconjugates for the treatment of tumours” (MolMed SpA, priority 2002, dated 2015):

B1: NGR-TNF: TNF fused with the C-terminus of CNGRCG; human or murine form not specified at the place (Example 15 used NGR-mTNF) (protein)
chain: CNGRCGMSTESMIRDVELAEEALPQKMGGFQNSRRCLCLSLFSFLLVAGATTLFCLLNFGVIGPQRDEKFPNGLPLISSMAQTLTLRSSSQNSSDKPVAHVVANHQVEEQLEWLSQRANALLANGMDLKDNQLVVPADGLYLVYSQVLFKGQGCPDYVLLTHTVSRFAISYQEKVNLLSAVKSPCPKDTPEGAELKPWYEPIYLGGVFQLEKGDQLSAEVNLPKYLDFAESGQVYFGVIAL

Columns and labels:
[1] = tested on: B16F1 cells; test: 48 hour in vitro cytotoxicity assay on cultured B16F1 cells; assay type: cell-based, mouse
From the text: To assess whether the synergism depends directly on cytotoxicity against tumor cells we measured the effect of each compound, alone or in combination, on cultured B16F1 cells.

[2] = tested on: B16F1 melanoma; test: anti-tumor activity (tumor growth) in B16F1 melanoma-bearing mice; assay type: in vivo, C57BL/6 mice
Protocol: C57BL/6 mice (Charles River Laboratories, Calco, Italy) weighing 16-18 g were challenged with subcutaneous injection in the left flank of 5×10^4 RMA-T or B16F1 living cells; 4-12 days later, the mice were treated with TNF or NGR-TNF solutions (100 μl) followed 2 hours later by administration of melphalan or doxorubicin solution (100 μl). Unless specified, all drugs were administered intraperitoneally (i.p.). All drugs were diluted with 0.9% sodium chloride, containing 100 μg/ml endotoxin-free human serum albumin (Farma-Biagini, Lucca, Italy), except for doxorubicin, which was diluted with 0.9% sodium chloride alone. Tumor growth was monitored daily by measuring the tumors with calipers as previously described (20). Animals were sacrificed before the tumors reached 1.0-1.5 cm in diameter. Tumor sizes are shown as mean±SE (5 animals/group).
We then investigated whether targeted delivery of low doses of NGR-mTNF to tumor vessles could enhance the anti-tumor activity of chemotherapeutic drugs.

[3] = tested on: RMA-T lymphoma; test: anti-tumor activity (tumor growth) in RMA-T lymphoma-bearing mice; assay type: in vivo, C57BL/6 mice; conditions: RMA-T tumors, treatment at day 10, picogram doses

| Molecule | killing of cultured cells [1] | effect on tumor growth, single agent ([2]; melphalan 90 μg, mTNF or NGR-mTNF 0.1 ng i.p.) | enhancement of therapeutic effect of cisplatinum [3] | dose sufficient to enhance the anti-tumor activity of melphalan and doxorubicin ([2]; systemic administration to mice) |
| --- | --- | --- | --- | --- |
| N[C@@H](Cc1ccc(N(CCCl)CCCl)cc1)C(=O)O [Melphalan] | Neither melphalan or NGR-mTNF, alone or in combination, killed these cells | unable to effect the growth of tumors | – | – |
| B1 | – | – | sufficient to enhance the therapeutic effect of cisplatinum | 0.003 to 0.005 µg/kg |
